Reference: BindingDB's records for PubMed 2530338 (Medical University of South Carolina, 1989)

Biological target: T1, Thromboxane A2 receptor (Homo sapiens, UniProt P21731)
T1 sequence (P21731 whole entry): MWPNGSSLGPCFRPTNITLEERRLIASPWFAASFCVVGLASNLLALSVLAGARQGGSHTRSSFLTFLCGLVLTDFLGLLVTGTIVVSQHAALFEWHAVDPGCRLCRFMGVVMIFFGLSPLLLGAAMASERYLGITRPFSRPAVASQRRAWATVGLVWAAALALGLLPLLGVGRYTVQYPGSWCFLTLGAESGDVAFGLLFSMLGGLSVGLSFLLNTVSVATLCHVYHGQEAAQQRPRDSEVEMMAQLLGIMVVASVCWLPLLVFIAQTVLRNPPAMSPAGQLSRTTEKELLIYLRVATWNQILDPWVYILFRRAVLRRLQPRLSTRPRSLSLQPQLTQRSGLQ

Ki [nM]	SMILES
41	CCCCC[C@H](O)CC[C@H]1c2cc([nH]n2)[C@@H]1CC=CCCCC(=O)O [9,11-AzoPGH2]
424	O=C(O)C[C@@H]1CCCc2c1n(Cc1ccc(Cl)cc1)c1ccc(F)cc21 [CAS_113243-00-8]
17	CCCCC[C@H](O)/C=C/C1C[C@H]2C[C@H](S2)[C@@H]1C/C=C\CCCC(=O)O (some centres undefined) [STA2]
62	CCCCC[C@H](O)/C=C/C1[C@@H](C/C=C\CCCC(=O)O)[C@H]2CO[C@@H]1C2 (some centres undefined) [U46619]
